Assay results: US20050112573A1, “Method of detecting toxic substance” (priority 2001, published 2005)

Test system: yeast genes (level of expressed mRNA)
Test: DNA chip analysis of expressed mRNA of yeast genes after 2 h culture with a toxic chemical substance
Format: cell-based, Saccharomyces cerevisiae S288C
Conditions: for The level of expressed mRNA in the presence of chemical substance/ (ratio to absence of chemical substance): stress protein genes, DNA chip
How it was run: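 Values are treated-to-control fluorescence ratios from a whole-yeast-genome DNA chip (65° C, over 12 h hybridization) using Cy3/Cy5-labelled cDNA from mRNA. Log-phase S288C cells in YPD at 25° C were exposed 2 h to a toxicant at sublethal, growth-inhibiting concentration.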

S=C([S-])NCCNC(=S)[S-].[Zn+2] [(11), zinc N,N′-ethylenebis(dithiocarbamate)]
The level of expressed mRNA in the presence of chemical substance/The level of expressed mRNA in the absence of chemical substance (yeast gene YIL123W): 1.2 | The level of expressed mRNA in the presence of chemical substance/The level of expressed mRNA in the absence of chemical substance (yeast gene YIL140W): 0.9 | The level of expressed mRNA in the presence of chemical substance/ (in its absence), gene YJL070C (yeast gene YJL070C, ratio of DNA chip fluorescence intensity to that without chemical substance): 1.3 | The level of expressed mRNA in the presence of chemical substance/The level of expressed mRNA in the absence of chemical substance (yeast gene YJL073W): 0.5 | The level of expressed mRNA in the presence of chemical substance/The level of expressed mRNA in the absence of chemical substance (yeast gene YJL089W): 0.6 | The level of expressed mRNA in the presence of chemical substance/ (ratio to absence), gene YJL096W (yeast gene YJL096W, mitochondria-located protein genes, 2 h culture with chemical): 1.2 | The level of expressed mRNA in the presence of chemical substance/The level of expressed mRNA in the absence of chemical substance (yeast gene YJL116C): 2.9 | The level of expressed mRNA in the presence of chemical substance/ (ratio to absence of chemical substance) (yeast gene YJL158C): 1.9 | The level of expressed mRNA in the presence of chemical substance/ (in its absence), gene YJL167W (yeast gene YJL167W, ratio of DNA chip fluorescence intensity to that without chemical substance): 1.2 | The level of expressed mRNA in the presence of chemical substance/ (ratio to absence), gene YJL180C (yeast gene YJL180C, mitochondria-located protein genes, 2 h culture with chemical): 1.4 | The level of expressed mRNA in the presence of chemical substance/ (in its absence), gene YJL216C (yeast gene YJL216C, ratio of DNA chip fluorescence intensity to that without chemical substance): 1.1 | The level of expressed mRNA in the presence of chemical substance/The level of expressed mRNA in the absence of chemical substance (yeast gene YJR004C): 0.7 | The level of expressed mRNA in the presence of chemical substance/The level of expressed mRNA in the absence of chemical substance (yeast gene YJR086W): 1.0 | The level of expressed mRNA in the presence of chemical substance/ (ratio to absence of chemical substance) (yeast gene YJR090C): 0.4 | The level of expressed mRNA in the presence of chemical substance/The level of expressed mRNA in the absence of chemical substance (yeast gene YKL008C): 1.5 | The level of expressed mRNA in the presence of chemical substance/The level of expressed mRNA in the absence of chemical substance (yeast gene YKL013C): 1.1 | The level of expressed mRNA in the presence of chemical substance/The level of expressed mRNA in the absence of chemical substance (yeast gene YKL039W): 1.0 | The level of expressed mRNA in the presence of chemical substance/The level of expressed mRNA in the absence of chemical substance (yeast gene YKL041W): 1.2 | The level of expressed mRNA in the presence of chemical substance/The level of expressed mRNA in the absence of chemical substance (yeast gene YKL096W): 3.5 | The level of expressed mRNA in the presence of chemical substance/The level of expressed mRNA in the absence of chemical substance (yeast gene YKL139W): 1.4 | The level of expressed mRNA in the presence of chemical substance/ (ratio to absence of chemical substance) (yeast gene YKL164C): 1.0 | The level of expressed mRNA in the presence of chemical substance/The level of expressed mRNA in the absence of chemical substance (yeast gene YKL165C): 0.3 | The level of expressed mRNA in the presence of chemical substance/The level of expressed mRNA in the absence of chemical substance (yeast gene YKL193C): 1.7 | The level of expressed mRNA in the presence of chemical substance/ (in its absence), gene YKR009C (yeast gene YKR009C, ratio of DNA chip fluorescence intensity to that without chemical substance): 1.2 | The level of expressed mRNA in the presence of chemical substance/ (in its absence), gene YKR034W (yeast gene YKR034W, ratio of DNA chip fluorescence intensity to that without chemical substance): 0.0 | The level of expressed mRNA in the presence of chemical substance/ (ratio to absence of chemical substance) (yeast gene YKR053C): 0.5 | The level of expressed mRNA in the presence of chemical substance/ in its absence, gene YKR058W (yeast gene YKR058W, energy system protein genes, 2 h culture with the chemical, ratio to control without chemical): 1.5 | The level of expressed mRNA in the presence of chemical substance/ (in its absence), gene YLR006C (yeast gene YLR006C, ratio of DNA chip fluorescence intensity to that without chemical substance): 1.5 | The level of expressed mRNA in the presence of chemical substance/ (ratio to absence of chemical substance) (yeast gene YLR006C): 1.5 | The level of expressed mRNA in the presence of chemical substance/The level of expressed mRNA in the absence of chemical substance (yeast gene YLR120C): 1.2 | The level of expressed mRNA in the presence of chemical substance/The level of expressed mRNA in the absence of chemical substance (yeast gene YLR136C): 1.2 | The level of expressed mRNA in the presence of chemical substance/The level of expressed mRNA in the absence of chemical substance (yeast gene YLR178C): 3.7 | The level of expressed mRNA in the presence of chemical substance/The level of expressed mRNA in the absence of chemical substance (yeast gene YLR250W): 1.4 | The level of expressed mRNA in the presence of chemical substance/ in its absence, gene YLR295C (yeast gene YLR295C, energy system protein genes, 2 h culture with the chemical, ratio to control without chemical): 1.3 | The level of expressed mRNA in the presence of chemical substance/ (ratio to absence), gene YLR295C (yeast gene YLR295C, mitochondria-located protein genes, 2 h culture with chemical): 1.3 | The level of expressed mRNA in the presence of chemical substance/The level of expressed mRNA in the absence of chemical substance (yeast gene YLR327C): 5.0 | The level of expressed mRNA in the presence of chemical substance/ (in its absence), gene YLR351C (yeast gene YLR351C, ratio of DNA chip fluorescence intensity to that without chemical substance): 1.1 | The level of expressed mRNA in the presence of chemical substance/The level of expressed mRNA in the absence of chemical substance (yeast gene YLR356W): 3.1 | The level of expressed mRNA in the presence of chemical substance/The level of expressed mRNA in the absence of chemical substance (yeast gene YLR362W): 1.5 | The level of expressed mRNA in the presence of chemical substance/ (in its absence), gene YLR375W (yeast gene YLR375W, ratio of DNA chip fluorescence intensity to that without chemical substance): 1.6 | The level of expressed mRNA in the presence of chemical substance/The level of expressed mRNA in the absence of chemical substance (yeast gene YLR391W): 1.4 | The level of expressed mRNA in the presence of chemical substance/The level of expressed mRNA in the absence of chemical substance (yeast gene YLR429W): 0.9 | The level of expressed mRNA in the presence of chemical substance/ in its absence, gene YML129C (yeast gene YML129C, energy system protein genes, 2 h culture with the chemical, ratio to control without chemical): 1.2 | The level of expressed mRNA in the presence of chemical substance/ (ratio to absence), gene YML129C (yeast gene YML129C, mitochondria-located protein genes, 2 h culture with chemical): 1.2 | The level of expressed mRNA in the presence of chemical substance/The level of expressed mRNA in the absence of chemical substance (yeast gene YMR004W): 2.5 | The level of expressed mRNA in the presence of chemical substance/ (ratio to absence), gene YMR023C (yeast gene YMR023C, mitochondria-located protein genes, 2 h culture with chemical): 0.8 | The level of expressed mRNA in the presence of chemical substance/The level of expressed mRNA in the absence of chemical substance (yeast gene YMR094W): 1.0 | The level of expressed mRNA in the presence of chemical substance/The level of expressed mRNA in the absence of chemical substance (yeast gene YMR104C): 1.1 | The level of expressed mRNA in the presence of chemical substance/ (ratio to absence of chemical substance) (yeast gene YMR186W): 1.1 | The level of expressed mRNA in the presence of chemical substance/The level of expressed mRNA in the absence of chemical substance (yeast gene YMR219W): 1.5 | The level of expressed mRNA in the presence of chemical substance/The level of expressed mRNA in the absence of chemical substance (yeast gene YMR226C): 1.4 | The level of expressed mRNA in the presence of chemical substance/ in its absence, gene YMR267W (yeast gene YMR267W, energy system protein genes, 2 h culture with the chemical, ratio to control without chemical): 1.0 | The level of expressed mRNA in the presence of chemical substance/ (ratio to absence), gene YMR267W (yeast gene YMR267W, mitochondria-located protein genes, 2 h culture with chemical): 1.0 | The level of expressed mRNA in the presence of chemical substance/ in its absence, gene YMR267W (yeast gene YMR267W, ratio of DNA chip fluorescence intensity to that without chemical substance): 1.0 | The level of expressed mRNA in the presence of chemical substance/The level of expressed mRNA in the absence of chemical substance (yeast gene YMR275C): 1.1 | The level of expressed mRNA in the presence of chemical substance/The level of expressed mRNA in the absence of chemical substance (yeast gene YMR276W): 1.9 | The level of expressed mRNA in the presence of chemical substance/ (in its absence), gene YMR278W (yeast gene YMR278W, ratio of DNA chip fluorescence intensity to that without chemical substance): 1.1
